Earlier results in patent US8592481B2 (Depomed, Inc., priority 2005, dated 2013).

Details: in vivo

1-(aminomethyl)cyclohexane acetic acid [gabapentin]
circulating gabapentin bound to plasma proteins: 3%
